Results from patent publication US20250122182A1 (Isosterix, Inc., priority 2023, published 2025).

Assays:
FLAG-Tagged Kat6A = FLAG-Tagged Kat6A (Homo sapiens (Human), UniProt Q92794); test: KAT6A IC50 using FLAG-tagged Kat6A (radioisotope-based filtration assay); details: 60 minutes preincubation with enzyme; Histone H3 peptide substrate; 1 μM Acetyl-CoA; read-out: Biochemical assay:Kat6A IC50
Description: (§1) Compounds were suspended in as a stock of 10 mM in DMSO. Compounds were diluted and tested in 10-doses with 3-fold serial dilutions starting with 10 μM as the highest concentration. Compounds were preincubated in the reaction mixture with the enzyme (5 nM KAT6A, amino acids 488-778 with an N-terminal FLAG tag incorporated; 10 nM […] protein, amino acids 657-1069 with an N-terminal GST tag). This preincubation was for 60 minutes prior to the addition of substrate. […] Reactions were performed in reaction buffer 50 mM Tris-HCl, pH 8.0, 50 mM NaCl, 0.1 mM EDTA, […], 1% DMSO and the reactions initiated with the addition of Acetyl-CoA as a co-factor, with histone acetylation measured with a radiometric activity assay using a radioisotope-based filtration assay. Inhibition of acetylation was calculated using with standard curve-fitting model and IC50 determination.

GST-Tagged Kat6B = GST-Tagged Kat6B (Homo sapiens (Human), UniProt Q8WYB5); test: Kat6B IC50 using GST-tagged Kat6B (radioisotope-based filtration assay); details: 60 minutes preincubation with enzyme; Histone H4 peptide substrate; 1 μM Acetyl-CoA; read-out: Biochemical assay:Kat6B IC50
Description: as §1

[1] = molecular target: Recombinant KAT6A/MOZ (488-778) protein (Homo sapiens (Human), UniProt Q92794); test: KAT6A AlphaLISA Inhibition Screening Assay; assay type: biochemical; details: for inhibition at 1 µM: read-out: Average Kat6A % inhibition @ 1 μM; for inhibition at 1 µM / Average Kat6A % inhibition @ 1 μM: 1 μM test compound; for inhibition at 10 µM: read-out: Average Kat6A % inhibition @ 10 μM; for inhibition at 10 µM / Average Kat6A % inhibition @ 10 μM: 10 μM test compound
Outline: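 AlphaLISA read-out with anti-acetyl-lysine acceptor and streptavidin donor beads, % inhibition relative to vehicle. Reaction: biotinylated histone H3 1-21 (200 nM) and acetyl-CoA (400 nM) with KAT6A 488-778 (25 nM), 120 min at room temperature, pH 8.0, 330 nM TSA, after 60 or 10 min enzyme–compound pre-incubation; 10-point 3-fold series from 10 μM.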

ZR-75-1 cells = test: Cell Titer-Glo Luminescent Cell Viability Assay in ZR-75-1 Cells; assay type: cell-based; details: compounds replenished every 48 hours till day 10, CellTiter-Glo
Description: The CellTiter-Glo® Luminescent Cell Viability Assay is a homogeneous method employed to determine the number of metabolically active cells in culture. On day 0, ZR-75-1 cells were detached completely from the culture flasks using 0.25% trypsin-EDTA (Catalog #25200056, Gibco). ZR-75-1 cells were seeded into white opaque-96 well culture plate (Catalog #6005680, Perkin Elmer) at a density of 1500 cells per well in 200 μL of RPMI 1640 medium (Catalog #A1049101, Gibco) supplemented with 10% Fetal Bovine Serum (Catalog #16000044, Gibco) and 1× Penicillin-Streptomycin (Catalog #15140122, Gibco). The plates were incubated at 37° C. with 5% CO2 for 24 hours. On day 1, the spent media was removed from each well of the plate and 180 μL of fresh RPMI 1640 complete media was added. Test compounds were diluted in 100% DMSO followed by complete media. 20 μL of media containing compounds were added to each well so that the final DMSO concentration was 0.5%. The test compounds were tested for 10 points DRC (10 μM top concentration, 3-fold dilution). The assay plates were incubated at 37° C. with 5% CO2 for 48 hours. The test compounds and media were replenished every 48 hours till day 10.
On day 10, the CellTiter-Glo® 2.0 reagent (Catalog #G9242, Promega) was thawed and equilibrated to room temperature. Assay plates were removed from the incubator and equilibrated to room temperature for about 30 minutes. 100 μL of spent media was removed from each well and then 50 μL of CellTiter-Glo® 2.0 Reagent was added. The plates were incubated on an orbital shaker at room temperature for 10 minutes to induce cell lysis and stabilize luminescent signal. The luminescent signal was recorded using Perkin Elmer Envision multi-mode plate reader. Percent cytotoxicity induced by test compounds was determined relative to vehicle control. EC50 value for test compounds was calculated using GraphPad Prism software (four parameter-variable slope equation).

Chain of GST-Tagged Kat6B (Q8WYB5 657-1069): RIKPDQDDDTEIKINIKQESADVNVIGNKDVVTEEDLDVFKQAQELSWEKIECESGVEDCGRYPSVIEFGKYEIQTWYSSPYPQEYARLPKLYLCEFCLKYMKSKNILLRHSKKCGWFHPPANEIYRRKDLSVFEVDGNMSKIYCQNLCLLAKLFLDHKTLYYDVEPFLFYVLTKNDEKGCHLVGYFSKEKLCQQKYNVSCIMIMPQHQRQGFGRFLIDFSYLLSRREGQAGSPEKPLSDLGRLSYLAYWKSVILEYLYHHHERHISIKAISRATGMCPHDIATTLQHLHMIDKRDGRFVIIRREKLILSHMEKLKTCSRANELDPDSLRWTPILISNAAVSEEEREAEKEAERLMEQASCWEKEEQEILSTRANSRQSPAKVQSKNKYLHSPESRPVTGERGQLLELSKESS
Chain of Recombinant KAT6A/MOZ (488-778) protein (Q92794 488-778): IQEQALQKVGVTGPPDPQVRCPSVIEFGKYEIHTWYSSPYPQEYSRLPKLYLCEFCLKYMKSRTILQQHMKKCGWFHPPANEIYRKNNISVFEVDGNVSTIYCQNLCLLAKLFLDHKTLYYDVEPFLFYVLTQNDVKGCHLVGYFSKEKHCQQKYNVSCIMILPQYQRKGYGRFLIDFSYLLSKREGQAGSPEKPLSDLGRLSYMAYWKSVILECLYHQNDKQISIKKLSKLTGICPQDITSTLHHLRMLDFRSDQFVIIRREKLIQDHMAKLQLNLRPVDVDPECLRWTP
Chain of FLAG-Tagged Kat6A (Q92794 488-778): as above

C=C(F)C(=O)Nc1ccc(Oc2cc(OC)c3c(NS(=O)(=O)c4cc(CC)ccc4OC)noc3c2)nc1 [Syn. Ex. 107, N-(6-((3-((5-ethyl-2-methoxyphenyl)sulfonamido)-4-methoxybenzo[d]isoxazol-6-yl)oxy)pyridin-3-yl)-2-fluoroacrylamide]
IC50 (FLAG-Tagged Kat6A): 2 nM
IC50 (GST-Tagged Kat6B): 1630 nM
inhibition at 1 µM [1]: 100%
inhibition at 10 µM [1]: 100%

COC(=O)NCc1cnn(Cc2cc(OC)c3c(NS(=O)(=O)c4ccccc4OC)noc3c2)c1 [Syn. Ex. 7, methyl ((1-((4-methoxy-3-((2-methoxyphenyl)sulfonamido)benzo[d]isoxazol-6-yl)methyl)-1H-pyrazol-4-yl)methyl) carbamate]
IC50 (FLAG-Tagged Kat6A): 22 nM
EC50 (ZR-75-1 cells): < 100 nM
IC50 (GST-Tagged Kat6B): 571 nM
Average Kat6A % inhibition @ 1 μM [1]: 97%
Average Kat6A % inhibition @ 10 μM [1]: 99%

C=C(F)C(=O)NCc1cnc(Oc2cc(OC)c3c(NS(=O)(=O)c4cc(CC)ccc4OC)noc3c2)s1 [Syn. Ex. 102, N-((2-((3-((5-ethyl-2-methoxyphenyl)sulfonamido)-4-methoxybenzo[d]isoxazol-6-yl)oxy)thiazol-5-yl)methyl)-2-fluoroacrylamide]
IC50 (FLAG-Tagged Kat6A): 2 nM
IC50 (GST-Tagged Kat6B): 2530 nM
inhibition at 1 µM [1]: 99%
inhibition at 10 µM [1]: 100%

CC#CC(=O)NCc1cnn(Cc2cc(OC)c3c(NS(=O)(=O)c4cc(CC)ccc4OC)noc3c2)c1 [Syn. Ex. 15, N-((1-((3-((5-ethyl-2-methoxyphenyl)sulfonamido)-4-methoxybenzo[d]isoxazol-6-yl)methyl)-1H-pyrazol-4-yl)methyl)but-2-ynamide]
IC50 (FLAG-Tagged Kat6A): 5 nM
EC50 (ZR-75-1 cells; Homo sapiens): 100 to 1000 nM
IC50 (GST-Tagged Kat6B): 1020 nM
inhibition at 1 µM [1]: 100%
inhibition at 10 µM [1]: 100%

C=C(F)C(=O)NCc1cnn(Cc2cc(OC(F)F)c3c(NS(=O)(=O)c4cc(CC)ccc4OC)noc3c2)c1 [Syn. Ex. 52, N-((1-((4-(difluoromethoxy)-3-((5-ethyl-2-methoxyphenyl)sulfonamido)benzo[d]isoxazol-6-yl)methyl)-1H-pyrazol-4-yl)methyl)-2-fluoroacrylamide]
IC50 (FLAG-Tagged Kat6A): 12 nM
EC50 (ZR-75-1 cells; Homo sapiens): 100 to 1000 nM
IC50 (GST-Tagged Kat6B): 3670 nM
inhibition at 1 µM [1]: 100%
inhibition at 10 µM [1]: 100%

CCc1ccc(OC)c(S(=O)(=O)Nc2noc3cc(Oc4ncc(CNC(=O)OC)s4)cc(OC)c23)c1 [Syn. Ex. 101, methyl ((2-((3-((5-ethyl-2-methoxyphenyl)sulfonamido)-4-methoxybenzo[d]isoxazol-6-yl)oxy)thiazol-5-yl)methyl)carbamate]
IC50 (FLAG-Tagged Kat6A): 4 nM
IC50 (GST-Tagged Kat6B): 2490 nM
inhibition at 1 µM [1]: 100%
inhibition at 10 µM [1]: 100%

C=C(F)C(=O)NCc1cnn(Cc2cc(OC)c3c(NS(=O)(=O)c4cc(CC)ccc4OC)noc3c2)c1 [Syn. Ex. 14, N-((1-((3-((5-ethyl-2-methoxyphenyl)sulfonamido)-4-methoxybenzo[d]isoxazol-6-yl)methyl)-1H-pyrazol-4-yl)methyl)-2-fluoroacrylamide]
IC50 (FLAG-Tagged Kat6A): 2 nM
EC50 (ZR-75-1 cells; Homo sapiens): < 100 nM
IC50 (GST-Tagged Kat6B): 878 nM
inhibition at 1 µM [1]: 100%
inhibition at 10 µM [1]: 100%

COC(=O)NCc1cnn(Cc2cc(OC)c3c(NS(=O)(=O)c4cc5c(cc4OC)CCC5)noc3c2)c1 [Syn. Ex. 25, methyl ((1-((4-methoxy-3-((6-methoxy-2,3-dihydro-1H-indene)-5-sulfonamido)benzo[d]isoxazol-6-yl)methyl)-1H-pyrazol-4-yl)methyl)carbamate]
IC50 (FLAG-Tagged Kat6A): 2 nM
EC50 (ZR-75-1 cells): < 100 nM
IC50 (GST-Tagged Kat6B): 722 nM
Average Kat6A % inhibition @ 1 μM [1]: 100%
Average Kat6A % inhibition @ 10 μM [1]: 100%

COc1cccc(OC)c1S(=O)(=O)Nc1noc2cc(Cn3cccn3)cc(OC(F)F)c12 [Claim 83 of WO 2023/088233, reference compound]
IC50 (FLAG-Tagged Kat6A): 2 nM
IC50 (GST-Tagged Kat6B): 144 nM

COC(=O)NCc1cnn(Cc2cc(OC(F)F)c3c(NS(=O)(=O)c4c(OC)cccc4OC)noc3c2)c1 [Syn. Ex. 50, methyl ((1-((4-(difluoromethoxy)-3-((2,6-dimethoxyphenyl)sulfonamido)benzo[d]isoxazol-6-yl)methyl)-1H-pyrazol-4-yl)methyl)carbamate]
IC50 (FLAG-Tagged Kat6A): 34 nM
EC50 (ZR-75-1 cells; Homo sapiens): 100 to 1000 nM
IC50 (GST-Tagged Kat6B): 2400 nM
inhibition at 1 µM [1]: 98%
inhibition at 10 µM [1]: 96%
